Laboratory results from US7157477B2, “Aliphatic amino-substituted demethoxylated hypocrellins and their synthesis” (Altachem Pharma Ltd., priority 2000, dated 2007).
Entries after “also recorded” stand apart in the source; their conditions may differ.

Legend:
[1] = in vivo; cited from earlier work
HeLa cells [2] = assay: DNA agarose gel electrophoresis (DNA ladder); type: cell-based; conditions: for DNA ladder, photosensitizer alone: 4 μM incubation, no light; for DNA ladder at early times: 3 and 6 h post-irradiation; for DNA ladder after photosensitization: 24 h after treatment at LD70 and LD90
Procedure: Stock sensitizer-DMSO solutions were diluted with DMEM containing 1% FBS. […] The cells were detached using 0.2% trypsin/0.5 mM EDTA solution in PBS and centrifuge-washed to remove unbound dyes. The cells were then transferred to 35-mm dishes (Costar)) 1 ml inch dish containing 3×10s cells, and irradiated with different doses of light. […] Immediately after irradiation, 2 ml DMEM containing 7.5% FBS was added to each dish.
The DNA was extracted as described previously [18] with some modification. Cells (2×106) were detached with the use of 0.2% trypsin/0.5 mM EDTA solution washed with PBS and pelleted by centrifugation. The cell pellets were suspended in lysis buffer consisting of 0.5% sodium dodecyl sulfate (SDS), 2 mM EDTA, 100 mg/ml proteinase K, and SO mM Tris-HC buffer (pH 8.0). After 24 h lysis at 37° C., the DNA was extracted with an equal volume of water-saturated phenol/chloroform/isoamyl alcohol (25:24:1). The aqueous phase was collected and DNA was precipitated with 0.5 volume ammonium acetate and 2.5 volumes cold absolute ethanol, and stored overnight at −20° C. The DNA was dissolved in TE (0.5 M EDTA in 1 M Tris-HCl buffer, pH 8.0) and incubated with DNase-free RNase A (100 mg/ml) at 37° C. for 1 h. The samples were electrophoresed for 3 h at 60 V in 1.5% agarose gel containing 0.5 μg ml^−1 ethidium bromide and visualized by UV transillumination.

HeLa cells [3] = assay: Sensitizer localization by fluorescence microscopy; type: cell-based; conditions: 4 μM; HB 15 min, 2-BA-2-DMHB 6 h
Procedure: Cells growing on glass were incubated in DMEM with 4 μM HB for 15 min or with 4 μM 2-BA-2-DMHB for 6 h at 37° C. Fluorescence was visualized by Nikon FXA microscope to assess sites of sensitizer location (excitation=400–450 nm, emission=600–650 nm).

[4] = Absorption spectra of photosensitizers in chloroform; type: physicochemical; conditions: for log6 at first band λmax / log6 at second band λmax / log6 at third band λmax / λmax (nm), first band / λmax (nm), second band / λmax (nm), third band: in chloroform
HeLa cells [5] = assay: Distribution ratio (cellular uptake by fluorescence); type: cell-based; conditions: for distribution ratio [Sen/g cells]/[Sen/ml medium]: extra-cellular drug 0 to 5 μM, HB 15 min, 2-BA-2-DMHB 6 h, 37° C.
Procedure: HeLa cells were maintained as monolayer culture in DMEM containing 5% FBS and antibiotics PS (80 U/ml penicillin and 100 μg/ml streptomycin) at 37° C. in a humidified 5% CO2 incubator.
The distribution ratio or the photosensitizer is defined as [Sen/g cells]/[Sen/ml medium]. The values were measured as described previously. Exponentially growing cells were incubated in DMEM with HB for 15 min or with 2-BA-2-DMHB for 6 h at 37° C., ranging from 0 to 5 μM. […] The washed pellets (2×10^6) were dispersed in 3 ml of 10 mM Triton X-100 detergent. These solutions were excited at 460 nm and the fluorescence emission spectra were acquired using Hitachi-F4500 fluorescence spectrophotometer. Fluorescence at 610 nm was determined, corrected for the fluorescence of control (drug-free) sample, and compared with a standard fluorescence-intensity curve prepared with HB and 2-BA-2-DMHB solutions of known concentration.

HeLa cells [6] = assay: Dark toxicity, MTT assay; type: cell-based; conditions: HB 15 min, 2-BA-2-DMHB 6 h; highest concentration tested 100 μM
Procedure: The dark toxicity characteristic of each compound was assessed separately following a similar procedure for cell exposure to graded doses of […] for 15 min or 2-BA-2-DMHB for 6 h. Precautions were taken to avoid exposure of the cells to light throughout the period when'the cells were exposed to, or contained, photosensitizers.

[7] = Superoxide anion radical generation by DMPO spin-trapping ESR; type: physicochemical; conditions: in DMSO, relative to HB
Procedure: (§1) Singlet oxygen yields were determined as previously reported by the DPA bleaching method. The electron spin resonance (ESR) measurement of, spin trapping of DMPO was used to determine the generation of O2 by hypocrellins.
DMPO spin-trapping ESR measurement was used here to verify the formation of superoxide anion radical generated by photosensitization of HB and 2-BA-2-DMHB.

HeLa cells [8] = assay: Flow cytometric detection of DNA fragmentation (PI staining); type: cell-based; conditions: for induction of apoptosis: evidenced by Hoechst staining, gel electrophoresis and flow cytometry; for hypoploid cell population: photosensitized cells
Procedure: Stock sensitizer-DMSO solutions were diluted with DMEM containing 1% FBS. […] The cells were detached using 0.2% trypsin/0.5 mM EDTA solution in PBS and centrifuge-washed to remove unbound dyes. The cells were then transferred to 35-mm dishes (Costar)) 1 ml inch dish containing 3×10s cells, and irradiated with different doses of light. The light source was a Red Light Treatment Instrument (Institute of Electronic Academia Sinica, China), Its total power output, more than 90% at 600–700 nm was 50 mW cm^2 at the position of the, samples, measured with BTY-8204 radiometer (Beijing Institute of Solar Energy, China). Immediately after irradiation, 2 ml DMEM containing 7.5% FBS was added to each dish. Then a portion of the cells was assessed for survival as follows and the rest were incubated in the medium until they could be checked for nucleus staining, DNA fragmentation and flow cytometry analysis.
A propidium iodide (PI) staining technique was used to assess the status of cellular DNA [19]. Cells were washed twice with ice-cold PBS and then permeabilized and fixed in 80% ethanol at 4° C. for 24 h. Cells were washed twice with PBS and suspended in PBS with RNase A (100 mg/ml) and incubated at 37° C. for 30 min. At this point the PI solution (10 mg/ml in PBS) was added to the cells in RNase solution, and the incubation was continued for 30 min at 4° C. After that, the cells were analyzed by Epics XL flow cytometer (Coulter, USA).

HeLa cells [9] = assay: Hoechst 33342 nuclear staining for apoptotic nuclei; type: cell-based
Procedure: Treated and control cells were incubated in DMEM with 0.5% FBS for 24 h at 37° C., then collected by detachment and centrifugation and incubated in a growth medium (FBS free) containing 5 μM H0342 for 5 min at 37° C. Nuclear fragmentation was assessed by fluorescence microscopy using Nikon FxA microscope. The EX wavelength was 330–380 nm with EM monitored at 420–450 nm.

HeLa cells [10] = conditions: for photopotentiation factor (LD50 dark / LD50 with 24 J cm−2 red light): MTT assay
Procedure: Stock sensitizer-DMSO solutions were diluted with DMEM containing 1% FBS. […] The cells were detached using 0.2% trypsin/0.5 mM EDTA solution in PBS and centrifuge-washed to remove unbound dyes. The cells were then transferred to 35-mm dishes (Costar)) 1 ml inch dish containing 3×10s cells, and irradiated with different doses of light. […] Immediately after irradiation, 2 ml DMEM containing 7.5% FBS was added to each dish. Then a portion of the cells was assessed for survival as follows and the rest were incubated in the medium until they could be checked for nucleus staining, DNA fragmentation and flow cytometry analysis.
Cell survival was estimated by the MTT assay [11,15,16]. PDT-treated cells were transferred into flat-bottomed 96-well plates (Costar) 100 μl in each well containing 1×10^4 cells and the cells were incubated at 37° C. in a. CO2, incubator for 20 h. Viability was determined by adding 10 μl MTT (10 mg ml^−1) to each well, and the mixture was incubated for 4 h at 37° C. Culture medium was then replaced with dimethylsulfoxide to dissolve the formazan crystals. […] Samples were measured in 12 replicates and each experiment was repeated at least twice. Survival of PDT-treated cells was normalized against cells incubated with photosensitizer alone.

AIDS = conditions: cited from earlier work
[11] = Singlet oxygen yield by DPA bleaching method; type: physicochemical; conditions: in DMSO
Procedure: as §1

[12] = tested on: EMT6 Ed mouse tumor cells; conditions: 24 J cm−2; Estey's results [8]; cited from earlier work

Structure (SMILES)	toxicity in animals [1]	DNA ladder, photosensitizer alone (HeLa cells [2])	DNA ladder at early times (HeLa cells [2])	DNA ladder after photosensitization (HeLa cells [2])	sites of sensitizer localization (HeLa cells [3])	log6 at first band λmax [4]	log6 at second band λmax [4]	log6 at third band λmax [4]	λmax (nm), first band [4] [nm]	λmax (nm), second band [4] [nm]	λmax (nm), third band [4] [nm]	distribution ratio [Sen/g cells]/[Sen/ml medium] (HeLa cells [5])	LD50 in the dark (HeLa cells [6])	induction of apoptosis (HeLa cells [8])	hypoploid cell population (HeLa cells [8]; LD90)	photopotentiation factor (LD50 dark / LD50 with 24 J cm−2 red light) (HeLa cells [10])	also measured
COc1c(O)c2c(=O)cc(OC)c3c4c(OC)cc(=O)c5c(O)c(OC)c6c(c(c1CC(C)(O)C6C(C)=O)c23)c54 (stereo not drawn) [hypocrellin A, 3,10-dihydroxyl-4,9-dione-1,12-(2′-hydroxyl-2′-methyl-3′-actyl)propilidene(1′,3′)-2,6,7,11-tetramethoxyl-perylene]	low toxicity																
CCCCNc1c(O)c2c(=O)cc(OC)c3c4c(OC)cc(=O)c5c(O)c(OC)c6c(c(c1C(C(C)=O)=C(C)C6)c23)c54 [Example 2-BA-2-DMHB, 2-butylamino-2-demethoxy-hypocrellin B]		No DNA ladder was observed	No obvious DNA ladder was detected	characteristic DNA ladder observed	primarily at ER; also recorded: mainly localized at endoplasmic reticulum	4.06	4.09	4.10	463	583	621	107.2±4.3	more than 100 μM	induced apoptosis	appearance of hypoploid cell population	more than 250 fold	extinction coefficient at 583 nm relative to HB at 548 nm [4]: 2.5 fold; extinction coefficient at 621 nm relative to HB at 580 nm [4]: over 3.8 fold; intra-cellular level relative to HB (HeLa cells [5]; equimolar levels of the drugs): approximately two fold as much as HB; also recorded: approximately two times as much as that of HB; Relative quantum yields (O2−) ([7]; listed as 2-BA-2-DMHD): 2.7; speed of apoptosis induction (HeLa cells [8]; post-irradiation, LD90): induced apoptosis more quickly than HB; nuclear morphology in the absence of light irradiation (HeLa cells [9]; 4 μM, 6 h, dark control): remained intact; apoptotic nuclei after photosensitization (HeLa cells [9]; LD70, 24 h post-irradiation): apoptotic nuclei were detected; photopotentiation relative to HB (HeLa cells [10]; in vitro): over 25 fold; concentration causing 50% cytotoxicity at light dose of 24 J cm−2 (HeLa cells [10]; red light 24 J cm−2): 0.25–0.5 FM
COc1c(O)c2c(=O)cc(OC)c3c4c(OC)cc(=O)c5c(O)c(OC)c6c(c(c1CC(C)=C6C(C)=O)c23)c54 [HB, 3,10-dihydroxyl-4,9-dione-1,12-(2′-methyl-3′-actyl-2′,3′-dehydro)propilidene(1′,3′)-2,6,7,11-tetramethoxyl-perylene, reference compound]	low toxicity	No DNA ladder was observed	No obvious DNA ladder was detected	characteristic DNA ladder observed	prominent lysosomal uptake, and endoplasmic reticulum (ER) staining; also recorded: mainly localized at lysosomal and endoplasmic reticulum	4.06	3.70	3.52	466	548	580	49.1±2.2	about 20 μM	induced apoptosis	appearance of hypoploid cell population	10 fold	anti-AIDS action (AIDS): distinct anti-AIDS action; Quantum yields (1O2), singlet oxygen yield [11]: 0.76; photopotentiation factor [12]: 10; Relative quantum yields (O2−) [7]: 1
